Source: patent publication US20250250292A1, “DELIVERY SYSTEM TO TARGET GRAM-NEGATIVE BACTERIA” (priority 2022, published 2025)
Where two headings read alike, the source gives them in different places.

Columns and labels:
MRC5 fibroblast cells = test: Cel Titer Glo cytotoxicity in MRC5 cells; type: cell-based; settings: for IC50: Homo sapiens
Experimental: In order to facilitate development of the TPP containing antibiotics, a series of TPP linkers were prepared and tested for their toxicity in MRC5 cells. This library of linkers are shown below: The toxicity of these linkers in MRC5 cells after a 72 hour incubation.

Escherichia coli = test: Antibacterial in vitro activity (MIC); type: cell-based
Experimental: (§1) These compounds were tested in an E. coli and Klebsiella strain to determine the change in OD600 as a function of concentration (FIG. 5, E. coli; FIG. 6, Klebsiella). The antibacterial activity of the compounds was further analyzed and activity was determine a variety of different bacterial strains.

[1] = system: Escherichia coli (BL21(DE3)); test: Resazurin blue (alamarBlue) bacterial cell viability assay, gram-negative model; type: cell-based
Experimental: (§2) To compare the efficacy of pleuromutilin and the pleuromulin-TPP^+ ester pro-drug (AP-8-159B) gram-negative and gram-positive pathogen model system were used. Thus, Escherichia coli (BL21(DE3) from New England Biolabs) was used as a model strain for gram-negative bacteria and clinical isolates of Staphylococcus aureus were used as the model system for gram-positive bacteria (NR-49120, NR-46413 obtained from BEI Resources). All strains were cultured at 37° C. overnight in Luria Bertani (LB) (BD 244610). For testing the drug sensitivity, bacteria were grown in RPMI medium containing 10% fetal bovine serum or human serum.
A resazurin blue assay (alamarBlue®) (Toté et al., 2009; Costa et al., 2021; Wannigama et al., 2019; Travnickova et al., 2019) was used to evaluate bacterial cell viability. Resazurin (7-hydroxy-10-oxidophenoxazin-10-ium-3-one, sodium) is a blue fluorogenic dye used as a redox indicator in cell viability and proliferation assays for bacteria, yeast, or mammalian cells. The resazurin assay protocol is based on the reduction of oxidized non-fluorescent blue resazurin to a red fluorescent dye (resorufin), where NADPH dehydrogenase, without being bound by theory, is probably responsible for the transference of electrons from NADPH+H^+ to resazurin (Costa et al., 2021). The amount of resorufin produced is directly proportional to the number of living cells. This simple fluorometric-based assay rapidly quantifies metabolically active bacterial cells. Two controls were added to the plate to confirm the correct response from the resazurin. The positive control used evaluated media alone without bacterial culture to confirm there was no change from blue to red. The negative control evaluated the bacteria culture alone without added compound to provide a 100% growth control (red). Thus, resazurin sodium salt (Sigma R7017) was added to pleuromutilin or pleuromutilin-TPP+ prodrug treated bacterial samples at a final concentration of 0.02% and incubated for 8 hours at 37° C. Changes in fluorescence were measured on the Biotek Synergy 2 plate reader after an 8-hour incubation at 37° C. using an excitation filter range of 530-570 nm and an emission filter range of 590-620 nm. An increase in fluorescence intensity corresponded to bacterial growth and was quantified by comparison with untreated bacterial control samples. The ratio of (TThreshold (untreated)/TThreshold (prodrug-treated)) (where T=time) was used to quantify the change in bacterial growth. To minimize inter-experimental variations, TThreshold values were corrected by subtracting untreated control cultures to reach minimum detectable fluorescence. At the end of the experiment, wells were visualized for changes in color from blue (inviable bacteria) to red (viable bacteria) and a picture was taken.

[2] = system: clinical isolates of Staphylococcus aureus (NR-49120, NR-46413); test: Resazurin blue (alamarBlue) bacterial cell viability assay, gram-positive model; type: cell-based; settings: clinical strains of Staphylococcus aureus
Experimental: as §2
A resazurin blue assay (alamarBlue®) (Toté et al., 2009; Costa et al., 2021; Wannigama et al., 2019; Travnickova et al., 2019) was used to evaluate bacterial cell viability. Resazurin (7-hydroxy-10-oxidophenoxazin-10-ium-3-one, sodium) is a blue fluorogenic dye used as a redox indicator in cell viability and proliferation assays for bacteria, yeast, or mammalian cells. […] This simple fluorometric-based assay rapidly quantifies metabolically active bacterial cells. […] The positive control used evaluated media alone without bacterial culture to confirm there was no change from blue to red. The negative control evaluated the bacteria culture alone without added compound to provide a 100% growth control (red). […] Changes in fluorescence were measured on the Biotek Synergy 2 plate reader after an 8-hour incubation at 37° C. using an excitation filter range of 530-570 nm and an emission filter range of 590-620 nm. An increase in fluorescence intensity corresponded to bacterial growth and was quantified by comparison with untreated bacterial control samples. The ratio of (TThreshold (untreated)/TThreshold (prodrug-treated)) (where T=time) was used to quantify the change in bacterial growth. To minimize inter-experimental variations, TThreshold values were corrected by subtracting untreated control cultures to reach minimum detectable fluorescence. […]

E. faecalis = settings: McCarthy, 2021; cited from earlier work
Acinetobacter baumannii [3] = settings: McCarthy, 2021; cited from earlier work
Pseudomonas aeruginosa [4] = settings: McCarthy, 2021; cited from earlier work
Klebsiella pneumoniae = test: Antibacterial in vitro activity (MIC); type: cell-based
Experimental: as §1

Enterobacter cloacae = test: Antibacterial in vitro activity (MIC); type: cell-based
Experimental: as §1

Enterococcus faecium = test: Antibacterial in vitro activity (MIC); type: cell-based; settings: isolate D0459, Clinical isolate
Experimental: as §1

Streptococcus pneumoniae = test: Antibacterial in vitro activity (MIC); type: cell-based
Experimental: as §1

Acinetobacter baumannii [5] = test: Antibacterial in vitro activity (MIC); type: cell-based
Experimental: as §1

Pseudomonas aeruginosa [6] = test: Antibacterial in vitro activity (MIC); type: cell-based
Experimental: as §1

Staphylococcus aureus = test: Antibacterial in vitro activity (MIC); type: cell-based
Experimental: as §1

Streptococcus pyogenes = test: Antibacterial in vitro activity (MIC); type: cell-based; settings: isolate B0780, Clinical isolate
Experimental: as §1

Proteus mirabilis = test: Antibacterial in vitro activity (MIC); type: cell-based
Experimental: as §1

Streptococcus agalactiae = test: Antibacterial in vitro activity (MIC); type: cell-based; settings: isolate B0790, Clinical isolate
Experimental: as §1

Haemophilus influenzae = test: Antibacterial in vitro activity (MIC); type: cell-based
Experimental: as §1

Salmonella typhimurium = test: Antibacterial in vitro activity (MIC); type: cell-based; settings: Salmonella enterica, ATCC 13311 / TYPHIMURIUM; isolate D0109, ATCC13311
Experimental: as §1

Citrobacter freundii = test: Antibacterial in vitro activity (MIC); type: cell-based
Experimental: as §1

[7] = Table 1, TPP+ linkers, MRC5 cells, 72-hour incubation
[8] = ATCC25922, isolate B0001, ATCC 25922, read-out: MIC
[9] = isolate B0159, Efflux pump deficient (ΔtolC)
[10] = isolate B0429, Efflux pump deficient (ΔacrAB)
[11] = isolate B1098, Clinical isolate, read-out: MIC
[12] = isolate D0120, Clinical isolate, read-out: MIC
[13] = Table 2, cytotoxicity in MRC5 fibroblast cells

In the case of Fc1cc(C[P+](c2ccccc2)(c2ccccc2)c2ccccc2)ccc1Cl [BI-182], the IC50 (MRC5 fibroblast cells; [7]) is reported as > 90 µM.
In the case of O=C(O)c1ccc(C[P+](c2ccccc2)(c2ccccc2)c2ccccc2)cc1 [AP-8-108, (4-Carboxybenzyl)triphenylphosphonium bromide], the MIC (Escherichia coli; [8]) is reported as > 32 µg/mL, the MIC (Escherichia coli; [9]) is reported as > 32 µg/mL and the MIC (Escherichia coli; [10]) is reported as > 32 µg/mL. The MIC (Escherichia coli; [11]) was > 32 µg/mL, the MIC (Escherichia coli; [12]) was > 32 µg/mL and the IC50 (MRC5 fibroblast cells; [7]) was > 90 µM. For the same compound, the IC50 (MRC5 fibroblast cells; [13]) was > 90 µM, the “cytotoxic effect” value ([1]; E. coli BL21 (DE3)) was “no cytotoxic effect” and the “cytotoxic effect” value [2] was “no cytotoxic effect”.
In the case of C=C[C@]1(C)C[C@@H](OC(=O)CS[C@@H]2CC[C@@H](N)C[C@H]2O)[C@]2(C)[C@H](C)CC[C@]3(CCC(=O)[C@H]32)[C@@H](C)[C@@H]1O [Lefamulin], the “antibacterial activity” value (E. faecalis) is listed as “lacks activity”, the “antibacterial activity” value (Acinetobacter baumannii [3]) is listed as “lacks activity” and the “antibacterial activity” value (Pseudomonas aeruginosa [4]) is listed as “lacks activity”.
For O=C(O)CCCCC[P+](c1ccccc1)(c1ccccc1)c1ccccc1 [AP-3-195], the IC50 (MRC5 fibroblast cells; [7]) was > 90 µM.
C=C[C@]1(C)C[C@@H](OC(=O)COC(=O)c2ccc(C[P+](c3ccccc3)(c3ccccc3)c3ccccc3)cc2)[C@]2(C)CC[C@@H](C)[C@@]3(CCC(=O)[C@@H]23)[C@@H](C)[C@@H]1O [AP-8-159B] gave an MIC (Escherichia coli; [8]) of 8 µg/mL, an MIC (Escherichia coli; isolate B0158, AcrAB-TolC efflux pump WT, read-out: MIC) of 32 µg/mL and an MIC (Escherichia coli; [9]) of 0.5 µg/mL. For the same compound, the MIC (Escherichia coli; [10]) was 1 µg/mL, the MIC (Escherichia coli; [11]) was 16 µg/mL and the MIC (Escherichia coli; [12]) was 16 µg/mL. The MIC (Klebsiella pneumoniae; ATCC11228, isolate B0032, ATCC 11228) was > 128 µg/mL, the MIC (Klebsiella pneumoniae; ATCC29519, isolate D0033, ATCC 29519) was 128 µg/mL and the MIC (Klebsiella pneumoniae; ATCC43816, isolate B0305, ATCC 43816) was 128 µg/mL. For the same compound, the MIC (Enterobacter cloacae; isolate D1089, Clinical isolate) was > 128 µg/mL, the MIC (Enterobacter cloacae; isolate D1090, Clinical isolate) was > 128 µg/mL and the MIC (Enterococcus faecium) was 0.5 µg/mL. The MIC (Streptococcus pneumoniae; isolate B0078, Clinical isolate) was 0.5 µg/mL, the MIC (Streptococcus pneumoniae; isolate B0415, Clinical isolate) was ≤ 0.12 µg/mL and the MIC (Acinetobacter baumannii [5]; ATCC15473, isolate B0473, ATCC 15473) was 64 µg/mL. For the same compound, the MIC (Acinetobacter baumannii [5]; isolate B1062, Clinical isolate) was 128 µg/mL, the MIC (Pseudomonas aeruginosa [6]; ATCC27853, isolate B0015, ATCC 27853) was 8 µg/mL and the MIC (Pseudomonas aeruginosa [6]; ATCC29511, isolate B0016, ATCC 29511) was 16 µg/mL. For the same compound, the MIC (Pseudomonas aeruginosa [6]; isolate B0367, Clinical isolate) was 4 µg/mL, the MIC (Staphylococcus aureus; ATCC49951, isolate B0009, ATCC 49951) was ≤ 0.12 µg/mL and the MIC (Staphylococcus aureus; isolate B0029, Clinical isolate) was 0.5 µg/mL. The MIC (Staphylococcus aureus; isolate B1325, Clinical isolates) was 0.5 µg/mL, the MIC (Streptococcus pyogenes) was 0.12 µg/mL and the MIC (Proteus mirabilis; Proteus mirabilis, isolate D1301, Clinical isolate, read-out: MIC) was 32 µg/mL. For the same compound, the MIC (Proteus mirabilis; isolate D1300, Clinical isolate) was 32 µg/mL, the MIC (Streptococcus agalactiae) was 0.06 µg/mL and the MIC (Haemophilus influenzae; ATCC49247, isolate B0035, ATCC 49247) was 1 µg/mL. It also gave an MIC (Haemophilus influenzae; isolate B0126, Clinical isolate) of 0.25 µg/mL, an MIC (Salmonella typhimurium) of 16 µg/mL and an MIC (Citrobacter freundii; isolate B0271, Clinical isolate) of 64 µg/mL. For the same compound, the MIC (Citrobacter freundii; isolate B0286, AKH Vienna) was 64 µg/mL, the IC50 (MRC5 fibroblast cells; [13]) was 4.67 µM and the “cytotoxicity” value (MRC5 fibroblast cells; normal MRC5 fibroblast cell lines) was “weak cytoxcity”. For the same compound, the cytotoxicity potency ([1]; E Coli BL21 (DE3)) was 1.65 µg/mL and the “cytotoxic effect” value [2] was “potent cytotoxic agents”.
In the case of O=C(O)c1ccc([P+](c2ccccc2)(c2ccccc2)c2ccccc2)cc1 [AP-8-99-1], the IC50 (MRC5 fibroblast cells; [7]) is reported as > 90 µM.
With OCCC[P+](c1ccccc1)(c1ccccc1)c1ccccc1 [AP-7-242] the IC50 (MRC5 fibroblast cells; [7]) was > 90 µM.
In the case of OCc1ccc([P+](c2ccccc2)(c2ccccc2)c2ccccc2)cc1 [AP-8-98], the IC50 (MRC5 fibroblast cells; [7]) is reported as 57.6 µM.
